Assay [1] concerns the target T1, human recombinant GST cleaved CSNK1D (Homo sapiens, UniProt P48730).
T1 construct: GST (cleaved yes); purchased University of Dundee clone DU 19064
The experiment in a line: Purified Enzyme Assay (ADP-Glo CSNK1D Kinase Assay). It counts as biochemical. Particulars: 2 nM CSNK1D; peptide substrate 150 μM; ATP 20 μM; 45 minutes at room temperature. As for the experimental part: In this assay, CSNK1D phosphorylates a substrate peptide PLSRTL-pS-VASLPGL in the presence of ATP. […] This assay monitors CSNK1D kinase activity by measuring the amount of ADP produced in the assay.
The substrate mix is added to each well of a low volume, 384-well, white opaque plate. Test compounds were diluted in HBSS and added in a dose-response to the plate.
The total volume of each reaction is 5 ul (2 μL of substrate mix, 1 μL of diluted compounds, and 2 μL of human recombinant CSNK1D). The plates are incubated for 45 minutes at room temperature.
ADP was quantified using the ADP-Glo™ Kinase Assay. ADP-Glo Reagent (5 μL) was added to each well. After a 1 hour incubation at room temperature, Kinase Detection Reagent (10 μL) was added to each well and incubated for 30 minutes. […] The raw data from the Envision is used to calculate percent activity.
In general terms: ADP-Glo turns the ADP formed in a reaction into a luminescent signal.

The target of the next assay is T2, human CSNK1D (Homo sapiens, UniProt P48730).
T2 construct: expressed in transfected cells
T2 sequence (P48730 whole entry): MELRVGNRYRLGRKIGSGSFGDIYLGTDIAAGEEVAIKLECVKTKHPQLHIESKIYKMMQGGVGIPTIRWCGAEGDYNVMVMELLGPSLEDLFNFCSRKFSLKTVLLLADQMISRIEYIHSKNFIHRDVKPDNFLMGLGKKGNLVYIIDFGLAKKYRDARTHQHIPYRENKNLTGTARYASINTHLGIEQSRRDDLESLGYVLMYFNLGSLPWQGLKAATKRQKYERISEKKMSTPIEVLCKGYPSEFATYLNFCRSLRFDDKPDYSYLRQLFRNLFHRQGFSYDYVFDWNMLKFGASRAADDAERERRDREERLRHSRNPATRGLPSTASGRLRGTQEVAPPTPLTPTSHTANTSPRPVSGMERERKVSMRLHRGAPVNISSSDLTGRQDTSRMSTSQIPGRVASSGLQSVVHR
The experiment in a line: Whole Cell nBRET CSNK1D Binding Assay. The note with it: living CHO cells stably expressing human CSNK1D tagged with nanoluciferase; NanoBret tracer 130 nM; 2 hours at 37 C.

T1 sequence (P48730 whole entry): as above

Take `COCC1(C)CCc2c(-c3cc(C)nc4[nH]ncc34)c(-c3ccc(F)cn3)nn2C1` (single isomer, unassigned) [Example 56, (*R)-4-(2-(S-Fluoropyridin-2-yl)-6-(methoxymethyl)-6-methyl-4,5,6,7-tetrahydropyrazolo[1,5-a]pyridin-3-yl)-6-methyl-1H-pyrazolo[3,4-b]pyridine]: the IC50 in assay [1] turned out to be 3 nM; on human CSNK1D, 63 nM.

`Fc1ccc(-c2nn3c(c2-c2ccnc4[nH]ncc24)[C@@H]2CC[C@H]3C2)cc1` (single isomer, unassigned) [Example 60, 4*R,7*S)-2-(4-Fluorophenyl)-3-(1H-pyrazolo[3,4-b]pyridin-4-yl)-4,5,6,7-tetrahydro-4,7-methanopyrazolo[1,5-a]pyridine]: the IC50 is 1 nM in assay [1] and 3 nM at human CSNK1D.

`Fc1ccc(-c2nn3c(c2-c2ccnc4[nH]ncc24)[C@H]2CC[C@@H]3C2)cc1` (single isomer, unassigned) [Example 61]: the IC50 in assay [1] was found to be 5 nM; at human CSNK1D, 21 nM.

On to `Fc1ccc(-c2nn3c(c2-c2ccnc4[nH]ncc24)[C@@H]2CC[C@H]3C2)nc1` (single isomer, unassigned) [Example 62, (4*R,7*S)-2-(5-Fluoropyridin-2-yl)-3-(1H-pyrazolo[3,4-b]pyridin-4-yl)-4,5,6,7-tetrahydro-4,7-methanopyrazolo[1,5-a]pyridine], for which the IC50 in assay [1] amounted to 6 nM; at human CSNK1D, 55 nM.

Turning to `Fc1ccc(-c2nn3c(c2-c2ccnc4[nH]ncc24)[C@H]2CC[C@@H]3C2)nc1` (single isomer, unassigned) [Example 63, (4*S,7*R)-2-(5-Fluoropyridin-2-yl)-3-(1H-pyrazolo[3,4-b]pyridin-4-yl)-4,5,6,7-tetrahydro-4,7-methanopyrazolo[1,5-a]pyridine], the 50% inhibitory concentration (IC50) in assay [1] came to 12 nM; on human CSNK1D, 320 nM.

`C[C@H]1Cn2nc(-c3ccc(F)cc3)c(-c3ccnc4[nH]ncc34)c2CO1` (single isomer, unassigned) [Example 81, (*)-2-(4-Fluorophenyl)-6-methyl-3-(1H-pyrazolo[3,4-b]pyridin-4-yl)-6,7-dihydro-4H-pyrazolo[5,1-c][1,4]oxazine]: the results for the IC50 (in assay [1]; at human CSNK1D) were 2 nM and 48 nM, respectively.

Consider `C[C@@H]1Cn2nc(-c3ccc(F)cc3)c(-c3ccnc4[nH]ncc34)c2CO1` (single isomer, unassigned) [Example 82, (*R)-2-(4-Fluorophenyl)-6-methyl-3-(1H-pyrazolo[3,4-b]pyridin-4-yl)-6,7-dihydro-4H-pyrazolo[5,1-c][1,4]oxazine], for which the results for the IC50 (in assay [1]; on human CSNK1D) were 2 nM and 26 nM, respectively.

`Cc1cc(-c2c(-c3ccc(F)cc3)nn3c2CO[C@@H](C)C3)c2cn[nH]c2n1` (single isomer, unassigned) [Example 83, (*S)-2-(4-Fluorophenyl)-6-methyl-3-(6-methyl-1H-pyrazolo[3,4-b]pyridin-4-yl)-6,7-dihydro-4H-pyrazolo[5,1-c][1,4]oxazine]: the IC50 in assay [1] was 3 nM; on human CSNK1D, 34 nM.

As for `Cc1cc(-c2c(-c3ccc(F)cc3)nn3c2CO[C@H](C)C3)c2cn[nH]c2n1` (single isomer, unassigned) [Example 84, (*R)-2-(4-Fluorophenyl)-6-methyl-3-(6-methyl-1H-pyrazolo[3,4-b]pyridin-4-yl)-6,7-dihydro-4H-pyrazolo[5,1-c][1,4]oxazine], the IC50 in assay [1] was found to be 1 nM; at human CSNK1D, 25 nM.

For `C[C@@H]1Cn2nc(-c3ccc(F)cn3)c(-c3ccnc4[nH]ncc34)c2CO1` (single isomer, unassigned) [Example 85, (*R)-2-(5-Fluoro-2-pyridyl)-6-methyl-3-(1H-pyrazolo[3,4-b]pyridin-4-yl)-6,7-dihydro-4H-pyrazolo[5,1-c][1,4]oxazine], the results for the IC50 (in assay [1]; on human CSNK1D) were 22 nM and 371 nM, respectively.

For `C[C@H]1Cn2nc(-c3ccc(F)cn3)c(-c3ccnc4[nH]ncc34)c2CO1` (single isomer, unassigned) [Example 86, (*S)-2-(5-Fluoro-2-pyridyl)-6-methyl-3-(1H-pyrazolo[3,4-b]pyridin-4-yl)-6,7-dihydro-4H-pyrazolo[5,1-c][1,4]oxazine], the results for the IC50 (in assay [1]; on human CSNK1D) were 29 nM and 254 nM, respectively.

As for `Cc1cc(-c2c(-c3ccc(F)cn3)nn3c2CO[C@H](C)C3)c2cn[nH]c2n1` (single isomer, unassigned) [Example 87, (*R)-2-(5-Fluoro-2-pyridyl)-6-methyl-3-(6-methyl-1H-pyrazolo[3,4-b]pyridin-4-yl)-6,7-dihydro-4H-pyrazolo[5,1-c][1,4]oxazine], the results for the IC50 (in assay [1]; on human CSNK1D) were 13 nM and 162 nM, respectively.

With `Cc1cc(-c2c(-c3ccc(F)cn3)nn3c2CO[C@@H](C)C3)c2cn[nH]c2n1` (single isomer, unassigned) [Example 88, (*S)-2-(5-Fluoro-2-pyridyl)-6-methyl-3-(6-methyl-1H-pyrazolo[3,4-b]pyridin-4-yl)-6,7-dihydro-4H-pyrazolo[5,1-c][1,4]oxazine], the IC50 turned out to be 12 nM in assay [1] and 248 nM at human CSNK1D.

Turning to `Cc1cc(-c2c(-c3ccc(F)cn3)nn3c2CO[C@@H](C)C3)c2cn[nH]c2n1` (single isomer, unassigned) [Example 89], the IC50 is 9 nM in assay [1] and 275 nM at human CSNK1D.

In the case of `C[C@H]1COCc2c(-c3ccnc4[nH]ncc34)c(-c3ccc(F)cc3)nn21` (single isomer, unassigned) [Example 91, (*S)-2-(4-Fluorophenyl)-7-methyl-3-(1H-pyrazolo[3,4-b]pyridin-4-yl)-6,7-dihydro-4H-pyrazolo[5,1-c][1,4]oxazine], the IC50 in assay [1] turned out to be 8 nM; at human CSNK1D it was 151 nM.

With `C[C@@H]1COCc2c(-c3ccnc4[nH]ncc34)c(-c3ccc(F)cc3)nn21` (single isomer, unassigned) [Example 92, (*R)-2-(4-Fluorophenyl)-7-methyl-3-(1H-pyrazolo[3,4-b]pyridin-4-yl)-6,7-dihydro-4H-pyrazolo[5,1-c][1,4]oxazine], the IC50 in assay [1] stood at 4 nM; at human CSNK1D, 100 nM.

`Cc1cc(-c2c(-c3ccc(F)cc3)nn3c2COC[C@@H]3C)c2cn[nH]c2n1` (single isomer, unassigned) [Example 93, (*S)-2-(4-Fluorophenyl)-7-methyl-3-(6-methyl-1H-pyrazolo[3,4-b]pyridin-4-yl)-6,7-dihydro-4H-pyrazolo[5,1-c][1,4]oxazine]: the IC50 in assay [1] came out at 10 nM; on human CSNK1D, 297 nM.

As for `Cc1cc(-c2c(-c3ccc(F)cc3)nn3c2COC[C@H]3C)c2cn[nH]c2n1` (single isomer, unassigned) [Example 94, (*R)-2-(4-Fluorophenyl)-7-methyl-3-(6-methyl-1H-pyrazolo[3,4-b]pyridin-4-yl)-6,7-dihydro-4H-pyrazolo[5,1-c][1,4]oxazine], the values for the IC50 (in assay [1]; at human CSNK1D) were 7 nM and 92 nM, respectively.

Consider `CC[C@@H]1Cn2nc(-c3ccc(F)cn3)c(-c3ccnc4[nH]ncc34)c2CO1` (single isomer, unassigned) [Example 95, (*R)-6-Ethyl-2-(5-fluoropyridin-2-yl)-3-(1H-pyrazolo[3,4-b]pyridin-4-yl)-6,7-dihydro-4H-pyrazolo[5,1-c][1,4]oxazine], for which the values for the IC50 (in assay [1]; on human CSNK1D) were 19 nM and 557 nM, respectively.

As to `CC[C@H]1Cn2nc(-c3ccc(F)cn3)c(-c3ccnc4[nH]ncc34)c2CO1` (single isomer, unassigned) [Example 96, (*S)-6-Ethyl-2-(5-fluoropyridin-2-yl)-3-(1H-pyrazolo[3,4-b]pyridin-4-yl)-6,7-dihydro-4H-pyrazolo[5,1-c][1,4]oxazine], the figures for the IC50 (in assay [1]; on human CSNK1D) were 32 nM and 2730 nM, respectively.

With `CC(C)[C@@H]1Cn2nc(-c3ccc(F)cn3)c(-c3ccnc4[nH]ncc34)c2CO1` (single isomer, unassigned) [Example 97, (*R)-2-(5-Fluoropyridin-2-yl)-6-isopropyl-3-(1H-pyrazolo[3,4-b]pyridin-4-yl)-6,7-dihydro-4H-pyrazolo[5,1-c][1,4]oxazine], the IC50 in assay [1] came to 63 nM; on human CSNK1D it was 5050 nM.

For the molecule `CC(C)[C@H]1Cn2nc(-c3ccc(F)cn3)c(-c3ccnc4[nH]ncc34)c2CO1` (single isomer, unassigned) [Example 98, (*S)-2-(5-Fluoropyridin-2-yl)-6-isopropyl-3-(1H-pyrazolo[3,4-b]pyridin-4-yl)-6,7-dihydro-4H-pyrazolo[5,1-c][1,4]oxazine], the values for the IC50 (in assay [1]; at human CSNK1D) were 31 nM and 2280 nM, respectively.

Turning to `FCC1Cn2nc(-c3ccc(F)cc3)c(-c3ccnc4[nH]ncc34)c2CO1` (single isomer, unassigned) [Example 104, (*S)-6-(Fluoromethyl)-2-(4-fluorophenyl)-3-(1H-pyrazolo[3,4-b]pyridin-4-yl)-6,7-dihydro-4H-pyrazolo[5,1-c][1,4]oxazine], the IC50 in assay [1] amounted to 4 nM; on human CSNK1D, 49 nM.

Turning to `FCC1Cn2nc(-c3ccc(F)cc3)c(-c3ccnc4[nH]ncc34)c2CO1` (single isomer, unassigned) [Example 105, (*R)-(Fluoromethyl)-2-(4-fluorophenyl)-3-(1H-pyrazolo[3,4-b]pyridin-4-yl)-6,7-dihydro-4H-pyrazolo[5,1-c][1,4]oxazine], the IC50 came to 4 nM in assay [1] and 46 nM on human CSNK1D.

For orientation: IC50 means the concentration needed to halve the response being measured.

The values are drawn from patent US20230339970A1, “CASEIN KINASE 1 DELTA MODULATORS” (priority 2020, published 2023).
